In article PMC6825221, “In silico re-engineering of a neurotransmitter to activate KCNQ potassium channels in an isoform-specific manner” (Communications Biology, 2019):

Legend:
[1] = biological target: KCNQ3* (Homo sapiens, UniProt O43525, A315T); experiment: [3H]GABA binding and competition, oocytes expressing KCNQ3*; settings: 100 µM
[2] = biological target: KCNQ2 (Homo sapiens, UniProt O43526); experiment: TEVC of homomeric KCNQ2 expressed in Xenopus oocytes; type: cell-based
Description: We generated cRNA transcripts encoding human KCNQ1, KCNQ2, KCNQ3, KCNQ4, KCNQ5 or GLRA1 (NM_001146040) (GenScript, Piscataway, NJ, USA) by in vitro transcription using the T7 polymerase mMessage mMachine kit (Thermo Fisher Scientific), after vector linearization, from cDNA sub-cloned into plasmids incorporating Xenopus laevis β-globin 5′ and 3′ UTRs flanking the coding region to enhance translation and cRNA stability. We quantified cRNA by spectrophotometry. […] We injected defolliculated stage V and VI Xenopus laevis oocytes (Ecocyte Bioscience, Austin, TX and Xenoocyte, Dexter, MI) with KCNQ channel α subunit (5-20 ng) or GLRA1 (20 ng) cRNAs. We incubated the oocytes at 16 °C in Barth’s saline solution (Ecocyte Bioscience) containing penicillin and streptomycin, with daily washing, for 2–5 days prior to two-electrode voltage-clamp (TEVC) recording.
For recording, oocytes were placed in a small-volume oocyte bath (Warner) and viewed them with a dissection microscope. Chemicals were sourced from Sigma, Matrix Scientific and Santa Cruz. […] All stock solutions were diluted in bath solution on the day of experiments. KCNQ2/3 channel activation was screened for using either 30 µM or 100 µM concentrations of each of the six compounds, then dose responses were conducted as appropriate. Bath solution was (in mM): 96 NaCl, 4 KCl, 1 MgCl2, 1 CaCl2, 10 HEPES (pH 7.6). Compounds were introduced into the oocyte recording bath by gravity perfusion at a constant flow of 1 ml per minute for 3 min prior to recording. Pipettes were of 1–2 MΩ resistance when filled with 3 M KCl. Currents were recorded in response to voltage pulses between −120 or −80 mV and + 40 mV at 20 mV intervals from a holding potential of −80 mV, to yield current-voltage relationships, current magnitude, and for quantifying activation rate. We analyzed data using Clampfit (Molecular Devices) and Graphpad Prism software (GraphPad, San Diego, CA, USA); values are stated as mean ± SEM. We plotted raw or normalized tail currents versus prepulse voltage and fitted with a single Boltzmann function:1 g=(A1−A2)/1+exp(V12−V)∕VS+A2, where g is the normalized tail conductance, A1 is the initial value at −∞, A2 is the final value at +∞, V1/2 is the half-maximal voltage of activation and Vs the slope factor. Activation, deactivation, wash-in and washout kinetics were fitted with single exponential functions to yield a τ value.

- competition of GABA binding to KCNQ3* [1]: able to compete out GABA binding
- effect of a tenfold excess (100 µM) on KCNQ2 activation by 2FPG (10 µM) [2]: subtly reduced the efficacy of 2FPG
- effects on KCNQ2 ([2]; dose response): negligible or much less potent effects
SMILES: CS(=O)(=O)N(CC(=O)O)c1cccc(F)c1 [3FMSG]
